Key:
Test in all cases: Qualitative dye staining on agarose pads (EVOS M7000)
Format in all cases: cell-based
Parameters in all cases: key to Relative fluorescent intensity: Very high: If the cells looked twice as big in the fluorescent channel, it was marked as having “very high” relative fluorescent intensity; High: if the cells looked bigger in the fluorescent channel, it was marked as having “high” relative fluorescent intensity; Medium: If the cells looked almost the same size in the fluorescent channel and the bright field, it was marked as having “medium” relative fluorescent intensity; Low: If the cells looked smaller in the fluorescent channel as compared to the brightfield but still the whole cell was visible, it was marked as having “low” relative fluorescent intensity; Negligible: If only a few traces of a cell was visible in the fluorescent channel, it was marked as having “negligible” relative fluorescent intensity
Proteus mirabilis = conditions: DiSC3(5) 3 μM, SYBR Green I 10×, SYTO 13 3 μM, FM4-64 15 μM
Method: (§1) An overnight culture was prepared by inoculating a bacterial colony in approximately 5 ml of Urine and incubating the culture in an orbital shaker at 37° C.
(§2) The following media and materials were utilised: Cation-adjusted Mueller Hinton broth (MHB); Phosphate Buffered Saline (PBS); Membrane staining dye—FM4-64 (1.5 mM); Live cell staining dye—DiSC3(5) (1 mM); DNA staining dye—SYBR Green (1000×); DNA staining dye—SYTO 13 (0.5 mM); Ultrapure Agarose; Parafilm; Glass slides and coverslips; Scalpel; and EVOS M7000 fluorescent microscope.
(§3) A pre-cut parafilm or a coverslip was used as a guide and 22 mm×22 mm squares cut from parafilm. A square was cut out of the centre of the parafilm (approximately 10 mm×10 mm). The centre of the cut-out was discarded. Two parafilm gaskets were placed onto a cleaned glass slide. The glass slide was then placed on a dry bath set to 56° C. so that the parafilm adhered to the glass slide. The glass slide was then kept on the dry bath. Using a microwave, ultrapure agarose was dissolved in PBS at a concentration of 1.2%. The agarose solution was kept on a dry bath set at 56° C. 60 μl of the agarose solution was pipetted in the centre of the parafilm gaskets. A coverslip was then placed over the gaskets without applying pressure on the coverslip. The slide was then placed on a cool surface and left to solidify for 1-2 minutes. The coverslips were then gently lifted off the agarose pads.
(§4) In a first Eppendorf, 15 μl of FM4-64 and 6 μl of SYTO 13 was added and in a second Eppendorf 10 μl of SYBR Green and 3 μl of DiSC3(5) was added. Depending on the bacterial growth in urine, an appropriate concentration of the bacterial culture was placed in the two Eppendorfs (final bacterial concentration 10^6 CFU/ml). MHB was added so as to achieve a final volume of 1 ml. Final concentrations of the dyes in the sample was as follows: DiSC3(5): 3 μM; SYBR Green I: 10× (originally supplied as 10,000×); SYTO 13: 3 μM; and FM4-64: 15 μM
(§5) 4 μl of the contents of each Eppendorf were deposited on one agarose pad and the cells distributed across the agar surface by tilting the slide. The slide was left to dry for approximately 1 minute. A coverslip was then placed on top of the agarose pad. The slide was placed inside the microscope and incubated at 37° C. for 10 minutes. Using different light filters for each dye, an image of each pad at 40× magnification on an EVOS M7000 fluorescent microscope was captured. Eight images for each agarose pad was recorded (i.e. 8 each for brightfield and 2 fluorescent channels). For each agarose pad, 24 images were recorded. This corresponded to 48 images in total for each bacterial strain (2 agarose pads per strain). Table A below was used to take the images using the correct fluorescent channel and intensity (for imagining on any other instrument, the LED intensity will need to be normalised against the EVOS M7000).
(§6) To qualitatively calculate the relative fluorescent intensities, cell size was compared between brightfield and the fluorescent channel for a given fluorescent dye. If the cells are very fluorescent, they will appear bigger in the fluorescent channel as compared to the bright field. For our qualitative measurements, if the cells looked bigger in the fluorescent channel, it was marked as having “high” relative fluorescent intensity. If the cells looked twice as big in the fluorescent channel, it was marked as having “very high” relative fluorescent intensity. If the cells looked almost the same size in the fluorescent channel and the bright field, it was marked as having “medium” relative fluorescent intensity. If the cells looked smaller in the fluorescent channel as compared to the brightfield but still the whole cell was visible, it was marked as having “low” relative fluorescent intensity. If only a few traces of a cell was visible in the fluorescent channel, it was marked as having “negligible” relative fluorescent intensity.

Klebsiella = conditions: Table 6 thresholds, DiSC3(5) 3 μM, SYBR Green I 10×, SYTO 13 3 μM, FM4-64 15 μM
Method: as §1, §2, §3, §4, §5, §6

Enterococcus faecalis = conditions: DiSC3(5) 3 μM, SYBR Green I 10×, SYTO 13 3 μM, FM4-64 15 μM
Method: as §1, §2, §3, §4, §5, §6

[1] = Table 7 commercial strain Proteus mirabilis NCTC 10975
[2] = Table 7 commercial strain Proteus mirabilis NCTC 11938
[3] = Table 8 sample Proteus mirabilis (021)
[4] = Table 8 sample Proteus mirabilis (022)
[5] = Table 8 sample Proteus mirabilis (023)
[6] = Table 7 commercial strain Enterococcus faecalis NCTCT 12697
[7] = Table 8 sample Enterococcus faecalis (001)
[8] = Table 8 sample Enterococcus faecalis (002)
[9] = Table 8 sample Enterococcus faecalis (003)

Row | Compound | Percentage of cells stained (Proteus mirabilis; [1]) | Relative fluorescent intensity (Proteus mirabilis; [1]) | Percentage of cells stained (Proteus mirabilis; [2]) | Relative fluorescent intensity (Proteus mirabilis; [2]) | Percentage of cells stained (Proteus mirabilis; [3]) | Relative fluorescent intensity (Proteus mirabilis; [3]) | Percentage of cells stained (Proteus mirabilis; [4]) | Relative fluorescent intensity (Proteus mirabilis; [4]) | Percentage of cells stained (Proteus mirabilis; [5]) | Relative fluorescent intensity (Proteus mirabilis; [5]) | Percentage of cells stained (Klebsiella) | Relative fluorescent intensity (Klebsiella) | Percentage of cells stained (Enterococcus faecalis; [6]) | Relative fluorescent intensity (Enterococcus faecalis; [6]) | Percentage of cells stained (Enterococcus faecalis; [7]) | Relative fluorescent intensity (Enterococcus faecalis; [7]) | Percentage of cells stained (Enterococcus faecalis; [8]) | Relative fluorescent intensity (Enterococcus faecalis; [8]) | Percentage of cells stained (Enterococcus faecalis; [9]) | Relative fluorescent intensity (Enterococcus faecalis; [9])
1 | CCCN1C(=CC=CC=Cc2sc3ccccc3[n+]2CCC)Sc2ccccc21.[I-] [DiSC3(5), 3,3′-Dipropylthiadicarbocyanine Iodide] | Almost all | Medium | Almost all | Low | Almost all | Low | Almost all | Medium | Almost all | Medium | Few | Low-Medium | Half | Low | Half | Low | Half | Low | Half | Low
2 | CCN(CC)c1ccc(C=CC=CC=Cc2cc[n+](CCC[N+](CC)(CC)CC)cc2)cc1.[Br-].[Br-] [FM 4-64, N-(3-Triethylammoniumpropyl)-4-(6-(4-(Diethylamino) Phenyl) Hexatrienyl) Pyridinium Dibromide] | Few | Negligible | Few | Negligible | Few | Negligible | Few | Negligible | Few | Negligible | Few | Low | Almost all | Medium | Almost all | Medium | Almost all | Medium | Almost all | Medium
3 | CCCN(CCCN(C)C)c1cc(/C=C2/Sc3ccccc3N2C)c2ccccc2[n+]1-c1ccccc1 [SYBR Green I, N′,N′-dimethyl-N-[4-[(E)-(3-methyl-1,3-benzothiazol-2-ylidene)methyl]-1-phenylquinolin-1-ium-2-yl]-N-propylpropane-1,3-diamine] | Half | Low | Half | Low | Half | Low | Half | Low | Half | Low | Few | Low | Almost all | Medium | Almost all | Medium | Almost all | Medium | Almost all | Medium
